From publication PMC2809098, “HH Domain of Alzheimer’s Disease Aβ Provides Structural Basis for Neuronal Binding in PC12 and Mouse Cortical/Hippocampal Neurons” (PLoS ONE, 2010)
No end group written: not given here.

Key:
[1] = tested on: amyloid plaques in APP, PS1 mouse brain sections; test: Labeling of amyloid plaques in brain sections with radioiodinated peptides, emulsion autoradiography; assay type: binding; details: 100 pM radioiodinated peptide, 3 hrs, unfixed 15 µm cryosections, 20-month old APP, one day of exposure
Experimental: HPLC-purified ^125I-Aβ40, ^125I-Aβ40 H13G, ^125I-Aβ40 H13R, ^125I-Aβ40 H13,14G or buffer was incubated in vitro with unfixed cryosections (15 µm) of brain from a 20-month old APP, PS1 AD transgenic mouse using the same procedure used previously. The rodent Aβ was not evaluated because the peptide lacks a tyrosine amino acid for radioiodination. Briefly, the sections were incubated for 3 hrs with 100 pM radioiodinated peptide or alone in 250 µl of TBS (50 mM Tris HCl, 138 mM sodium chloride, pH 7.0) containing 0.1% BSA, 0.6 mg/ml magnesium chloride, 0.04 mg/ml bacitracin, 0.002 mg/ml chymostatin, and 0.004 mg/ml leupeptin. After rinsing and air drying overnight at 4°C., the sections were fixed in formalin for 5 min and then underwent immunoperoxidase histochemistry (IH) for amyloid using an anti-Aβ monoclonal mouse antibody (4G8, 1∶1000, Signet Laboratories, Dedham, MA). Next, the sections were dipped in an autoradiographic emulsion (Type NTB-3, Kodak, Rochester, NY) for direct comparison of ^125I-peptide labeling to anti-Aβ IH. The slides were dipped in emulsion, exposed for various durations, and developed according to the instructions. The sections were dehydrated with successive changes of ethanol and xylene and then coverslipped.

immobilized Aβ40 fibrils = target: T1, immobilized Aβ40 fibrils (Homo sapiens, UniProt P05067); test: Surface plasmon resonance binding to immobilized Aβ40 fibrils; details: read-out: ka
T1 construct: made in house; host or cells: chemical solid-phase peptide synthesis (CEM Liberty synthesizer)
T1 sequence (P05067 672-711): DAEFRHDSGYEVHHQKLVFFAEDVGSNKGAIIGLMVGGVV
Experimental: Surface Plasmon Resonance (SPR) analyses were performed at 25 °C using Biacore 3000 optical biosensors with research grade CM5 chips (Biacore, Uppsala, Sweden). […] The binding sensograms were recorded following the injection of freshly prepared peptides over the immobilized surface for 5 min at a flow rate of 30 µl/min. The dissociation profile was monitored for about 15 min, and then the surface was regenerated with two short 8 sec injections of 50 mM NaOH. Extensive validation studies were performed to ensure that Aβ fibrils immobilized on the chip retained their binding characteristics even after the regeneration procedure. Kinetic data analysis was performed using Biaevaluation software (Version 3.2) provided by Biacore Inc., Uppsala, Sweden.

| Substance | labeling of amyloid plaques [1] | kon at 75 µM (immobilized Aβ40 fibrils) |
| --- | --- | --- |
| ^125I-Aβ40 H13,14G: radioiodinated Aβ40 H13,14G | labeled amyloid plaques equally well | – |
| ^125I-Aβ40 H13G | labeled amyloid plaques equally well | – |
| DAEFGHDSGFEVRHQKLVFFAEDVGSNKGAIIGLMVGGVV [Aβ40 R5G, Y10F, H13R, Aβ1-40 R5G, Y10F, H13R] | – | 31 M⁻¹ s⁻¹ |
| ^125I-Aβ40: radioiodinated Aβ40 [reference compound] | labeled amyloid plaques equally well | – |
| ^125I-Aβ40 H13R | labeled amyloid plaques equally well | – |
